“And” between values parts separate entries of the source, which are not always exact repeats. Equal values may be shown once. “Also recorded” adds a separate entry of the source. Read-outs that look alike come from different tables or passages of the source.
Tests used:
[1] = test system: mucosal barrier function; test: Intestinal permeability, serum FITC-dextran in DSS-treated mice; assay type: in vivo, mouse
Procedure: The mice treated with DSS for 7 days were fasted for 6 h, given FITC-dextran (3-5 kDa, FD4, sigma) intragastrically at a dose of 60 mg kg^−1. After 3 h, hemolysis-free sera were collected and the fluorescence intensity of serum was read by a multi-mode microplate reader (excitation, 488 nm; emission, 520 nm).

[2] = test system: MLKL, PKA, CREB phosphorylation; test: Immunoblotting of p-MLKL, p-PKA, p-CREB in colon tissues/IECs of DSS-treated mice; assay type: in vivo, mouse; conditions: for Activation of cAMP/PKA/CREB pathway (p-PKA, p-CREB): DSS-induced colitis mice; for Necroptosis of IECs (p-MLKL level and TEM imaging): high-dose, 20 μM, during DSS feeding
Procedure: The data represent the mean ± SD for c, e, and h–l, the data represent the mean ± SEM for b.
Colon tissues derived from the euthanized by carbon dioxide inhalation mice were opened longitudinally and washed in pre-cooling PBS for three times. Then, the tissues were cut into 3 mm^2 pieces and incubated with 5 mM EDTA solution in PBS on a constant temperature shaker at 200 rpm for 25 min at 37°C. Then, let it stand at room temperature for 30 seconds and collected the supernatant. Next, repeated the above process once. Supernatants from the above step were combined and centrifuged at 500 g for 8 min. Abandon the supernatants and obtain IECs.
(§1) Tissues and cells were lysed using RIPA lysis buffer (Beyotime Biotechnology) containing protease and phosphatase inhibitor, homogenated, and centrifuged. The protein concentration was determined by BCA protein assay (Beyotime Biotechnology). Equal concentrations of proteins were separated in a 10% SDS-PAGE and transferred to PVDF membrane. The membrane was blocked using 5% milk in TBST, probed with primary antibody, RIPK1 (17519-1-AP, Proteintech, 1:1000), MLKL (GTX107538-100, GeneTex, 1:1000), RIPK3 (17563-1-AP, Proteintech, 1:1000), p-MLKL (EPR9514, Abcam, 1:1000), PKA (bs-0520R, Bioss, 1:1000), p-PKA (#9621, Cell signaling, 1:1000), CREB (AF6188, Affinity, 1:1000), p-CREB (AF3189, Affinity, 1:1000), P2Y14R (bs-12028R, Bioss, 1:1000), GSDMD (ab209845, Abcam, 1:1000), Caspase1 p20 (bs-10442R, Bioss, 1:1000), Bcl-2 (bs-0032R, Bioss, 1:1000), Bax (AF0120, Affinity, 1:1000), Caspase-3 p-17 (Cell Signaling Technology, #9664, 1:1000), β-actin (bs-0061R, Bioss, 1:1000), GAPDH (BS-2188R, Bioss, 1:1000) and corresponding HRP-conjugated antibodies Goat Anti-Rabbit IgG H&L Antibody (bioss, Bs-0295G, 1:8000) or Goat Anti-Mouse IgG H&L Antibody (bioss, Bs-0296G, 1:8000). Densitometry was quantified using ImageJ software.

[3] = test system: CREB binding to Ripk1 promoter; test: ChIP-qPCR with anti-CREB on Ripk1 gene promoter in IECs of experimental colitis mice; assay type: in vivo, mouse; conditions: for CREB binding Ripk1 promoter: DSS-treated mice, Figure 7j; for Binding between CREB and Ripk1 promoter (ChIP): IECs of DSS-induced colitis mice
Procedure: Total RNA was extracted from cells or colonic tissues using Trizol (Thermo) under the manufacturer’s instructions. First strand cDNA was synthesized using the PrimeScript RT Reagent Kit (480, Abm). SYBR Green Master Mix reagents (Q331-02, Vazyme) and primer mixtures (Table S1) were used for the real-time PCR. The ChIP assays were performed using EZ ChIP kit (17-371, Millipore). The procedure was as described in the kit provided by the manufacturer. Briefly, isolated IECs were fixed by 1% formaldehyde, and fragmented by sonication. CREB was then used for immunoprecipitation. After washing and reverse-crosslinking, the precipitated DNA was amplified by primers and quantified by the qPCR. Primer sequences can be found in Supplementary Table 1.

[4] = test system: apoptosis and pyroptosis of IECs; test: Apoptosis and pyroptosis markers in IECs of DSS-treated mice (TUNEL, cleaved caspase-3, Bcl-2, Bax, GSDMD-NT, caspase-1 p20); assay type: in vivo, mouse; parameters: GSDMD / caspase-1 / caspase-3: scale not given here; conditions: for BAX/BCL / GSDMD / caspase-1 / caspase-3: replicates
Procedure: as §1
Immunofluorescence staining was performed using paraffin-embedded tissues as mentioned before. For immunofluorescence, the paraffin slides were deparaffinized, rehydrated, blocked and treated according to a standard protocol. The expression of intestinal barrier associated tight junction protein, P2Y14R and EpCAM was evaluated by probing the tissues with primary antibody against Claudin-1 (bioss, bs-10011R, 1:300), Occludin (bioss, DF6919, 1:300), ZO-1 (Affinity, AF5145, 1:300), EpCAM (AiFang, AF04654, 1:300), Caspase-3 p-17 (Cell Signaling Technology, #9664, 1:1000) and P2Y14R (Invitrogen, PAS-103202, 1:300) overnight at 4°C followed by 1 h incubation with the corresponding secondary antibody Goat Anti-Mouse IgG H&L (Alexa Fluor® 555) (ab150114, Abcam, 1:500) or Goat Anti-Rabbit IgG H&L (Alexa Fluor® 488) (ab150077, Abcam, 1:300). All slides were incubated with DAPI (S2110, Solarbio) for 10 min to show the location of the nucleus. Images were captured with a confocal microscope (LSM 800, Zeiss).
TUNEL staining was performed using paraffin-embedded tissues as mentioned before. The staining was performed with apoptosis kit (11684817910, Roche) to detect apoptotic cells in colon sections according to the instructions of manufacturer. After the paraffin sections conventional dewaxing to water, performed the antigen recovery with protease K working solution at 37°C for 22 min. Then incubated the sections with permeabilize working solution at room temperature for 20 min. Next, take appropriate amount of TDT enzyme, dUTP and buffer in the tunel kit according to the number of slices and tissue size and mix at 1:5:50 ratio, and used to incubate the tissues at 37°C for 1 h. Finally, the DAPI dye (S2110, Solarbio) was used to stain nucleus at room temperature for 10 min. Images were captured with NanoZoomer S60 (C13210-01, Hamamatsu).

[5] = Solubility; assay type: physicochemical; conditions: compared with compound D4
[6] = parameters: method as in PMID 24138077; conditions: cited from earlier work
[7] = parameters: method as in PMID 24138077; conditions: cited from earlier work; remark: listed apart in the source
[8] = DSS-treated mice, group -H (high dose), Figure 7h
[9] = DSS-treated mice, group -L (low dose), Figure 7h
[10] = P2Y14R△IEC mice + DSS + PPTN, individual mice, supplement Figure 4e

With `Brc1ccc(NCc2nc3ccccc3o2)cc1` [HDL-16] as the compound, how does the “Serum level of FITC-dextran in DSS-treated mice relative to treated group” value ([1]; high-dose, 20 μM, 100 μl per mouse) read?
The value was “significantly higher”.

What about the “Activation of cAMP/PKA/CREB pathway (p-PKA, p-CREB)” value [2] of the same compound?
The value was “significantly increased the level of p-PKA and p-CREB; also recorded: upregulated the activation of the cAMP/PKA/CREB pathway”.

And the P-MLKL/MLKL [2, 8]?
Its P-MLKL/MLKL is 1.521 and 1.265 and 1.621 and 1.356 and 1.5395.

And the P-PKA/PKA [2, 8]?
The P-PKA/PKA was 1.707 and 1.759 and 1.709 and 1.416 and 2.236.

What about the p-CREB/CREB [2, 8] of the same compound?
Its p-CREB/CREB is 1.095 and 0.9798 and 1.543 and 0.8826 and 0.8002.

What about the P-MLKL/MLKL [2, 9] of the same compound?
Its P-MLKL/MLKL is 1.7141 and 1.386 and 1.7276 and 1.656 and 1.549.

And the P-PKA/PKA [2, 9]?
The P-PKA/PKA was 1.542 and 1.79 and 2.009 and 1.5655 and 1.809.

And the p-CREB/CREB [2, 9]?
The p-CREB/CREB was 0.8983 and 0.8748 and 1.433 and 0.9557 and 0.9121.

And the P-MLKL/MLKL ([2]; P2Y14R△IEC mice + DSS + HDL-16-H (high dose), individual replicates)?
The P-MLKL/MLKL was 1.288 and 1.248 and 1.394 and 1.076 and 1.4285.

And the P-MLKL/MLKL ([2]; P2Y14R△IEC mice + DSS + HDL-16-L (low dose), individual replicates)?
Its P-MLKL/MLKL is 1.279 and 1.445 and 1.246 and 1.195 and 1.182.

And the “Necroptosis of IECs (p-MLKL level and TEM imaging)” value [2]?
The value was “prominently suppression in necroptosis”.

And the “CREB binding Ripk1 promoter” value ([3]; group -H (high dose))?
Its value is 68.32% and 67.71% and 73.03%.

What about the “CREB binding Ripk1 promoter” value ([3]; group -L (low dose)) of the same compound?
The value was 52.80% and 57.62% and 56.66%.

And the “Binding between CREB and Ripk1 promoter (ChIP)” value [3]?
Its value is “promoted the binding between CREB and Ripk1 promoter”.

What about the BAX/BCL ([4]; DSS+HDL-16-H (high dose)) of the same compound?
The BAX/BCL was 7.829 and 4.146 and 3.473 and 3.902 and 4.249.

And the GSDMD ([4]; DSS+HDL-16-H (high dose))?
The GSDMD was 1.314 and 1.225 and 1.812 and 1.35 and 1.898.

What about the caspase-1 ([4]; DSS+HDL-16-H (high dose)) of the same compound?
Its caspase-1 is 2.375 and 1.892 and 1.815 and 1.586 and 3.381.

What about the caspase-3 ([4]; DSS+HDL-16-H (high dose)) of the same compound?
The caspase-3 was 2.22 and 2.236 and 2.6476 and 2.354 and 2.345.

And the BAX/BCL ([4]; DSS+HDL-16-L (low dose))?
Its BAX/BCL is 6.676 and 3.513 and 3.416 and 6.035 and 4.817.

What about the GSDMD ([4]; DSS+HDL-16-L (low dose)) of the same compound?
Its GSDMD is 1.693 and 1.518 and 1.46 and 1.354 and 1.839.

What about the caspase-1 ([4]; DSS+HDL-16-L (low dose)) of the same compound?
Its caspase-1 is 2.037 and 2.2873 and 0.9771 and 2.5083 and 2.278.

What about the caspase-3 ([4]; DSS+HDL-16-L (low dose)) of the same compound?
The caspase-3 was 2.396 and 2.3353 and 3.098 and 2.578 and 2.264.

And the “Apoptosis and pyroptosis of IECs” value ([4]; DSS-induced inflammation, TUNEL and western blot)?
The value was “did not influence the apoptosis and pyroptosis”.

What about the Solubility [5] of the same compound?
Its Solubility is “increased solubility”.

Which results are given for `O=C(O)c1cc(-c2ccc(C3CCNCC3)cc2)c2ccc(-c3ccc(C(F)(F)F)cc3)cc2c1` [PPTN, reference compound]?
CON(ug/ml), serum FITC-dextran ([1]; DSS-treated mice, Figure 7e): 12.4177 µg/mL and 12.0055 µg/mL and 12.4453 µg/mL and 11.0788 µg/mL and 9.474 µg/mL and 9.103 µg/mL; CON [1, 10]: 6.506 µg/mL and 7.571 µg/mL and 6.5332 µg/mL and 6.645 µg/mL and 6.518 µg/mL and 7.625 µg/mL; Serum fluorescence intensity [1, 10]: 5968551 and 6689623 and 5987216 and 6062672 and 5977001 and 6726135; Activation of cAMP/PKA/CREB pathway (p-PKA, p-CREB) [2]: significantly increased the level of p-PKA and p-CREB; P-MLKL/MLKL ([2]; DSS-treated mice, Figure 7h): 1.3877 and 1.2109 and 1.586 and 1.421 and 1.9357; P-PKA/PKA ([2]; DSS-treated mice, Figure 7h): 2.217 and 1.679 and 2.34 and 2.232 and 2.623; p-CREB/CREB ([2]; DSS-treated mice, Figure 7h): 0.8109 and 1.08 and 1.258 and 1.076 and 0.8633; P-MLKL/MLKL ([2]; P2Y14R△IEC mice + DSS + PPTN, individual replicates): 1.205 and 1.2332 and 1.252 and 1.224 and 1.39; Necroptosis of IECs (p-MLKL level and TEM imaging) [2]: prominently suppression in necroptosis; CREB binding Ripk1 promoter [3]: 59.41% and 55.99% and 63.77%; Binding between CREB and Ripk1 promoter (ChIP) [3]: promoted the binding between CREB and Ripk1 promoter; Solubility [6]: poor solubility; Oral bioavailability [7]: low oral bioavailability
